Laboratory results published in PMC4623779, “1-Octen-3-ol – the attractant that repels” (F1000Research, 2015).
Numbering of substitutions follows the chain as printed.

Assays:
Format in all cases: cell-based
[1] = target: T1, CquiOR114b-2 (co-expressed with CquiOrco) (Culex quinquefasciatus, UniProt A0A3G1CJJ8); test: two-electrode voltage clamp, Xenopus oocytes, current traces; conditions: agonist current, 1 to 10 µM, enantiomer not stated
T1 construct: full length, 405 residues (longer C-terminus); pGEMHE, Xenopus oocytes co-expressing CquiOrco; with Odorant receptor coreceptor
T1 sequence (A0A3G1CJJ8 1-405): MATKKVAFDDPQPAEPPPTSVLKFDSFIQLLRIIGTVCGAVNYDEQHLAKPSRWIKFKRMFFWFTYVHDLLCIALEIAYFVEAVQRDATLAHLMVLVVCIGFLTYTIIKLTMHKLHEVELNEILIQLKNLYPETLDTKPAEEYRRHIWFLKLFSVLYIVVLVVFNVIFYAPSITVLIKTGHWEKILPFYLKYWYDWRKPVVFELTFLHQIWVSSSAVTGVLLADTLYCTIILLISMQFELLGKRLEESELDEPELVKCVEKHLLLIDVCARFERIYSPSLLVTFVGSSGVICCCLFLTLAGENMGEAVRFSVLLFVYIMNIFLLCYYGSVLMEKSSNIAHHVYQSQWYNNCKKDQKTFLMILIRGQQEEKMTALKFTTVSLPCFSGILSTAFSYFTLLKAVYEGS
Text: two-electrode voltage clamp, Xenopus oocytes, current traces on CquiOR114b-2 (co-expressed with CquiOrco) | CquiOR114b-2 and CquiOrco (lower trace). Compounds were delivered in the following order | CquiOR114b-2 and CquiOrco (lower trace). Compounds were delivered in the following order: 1-octyn-3-ol

[2] = target: T2, CquiOR114b-1 (co-expressed with CquiOrco) (Culex quinquefasciatus, UniProt A0A3G1CJK1); test: as above; conditions: agonist current, 1 to 10 µM, enantiomer not stated
T2 construct: full length, 405 residues (longer C-terminus); pGEMHE, Xenopus oocytes co-expressing CquiOrco; with Odorant receptor coreceptor
T2 sequence (A0A3G1CJK1 1-405): T1 sequence (A0A3G1CJJ8 1-405) with W63L, E122G, N129D

[3] = target: T2, CquiOR114b-1 (co-expressed with CquiOrco); test: two-electrode voltage clamp, Xenopus oocytes, concentration-response; conditions: agonist current, 1, 10 and 100 µM, holding -80 to -70 mV
[4] = target: T3, CquiOR118b (co-expressed with CquiOrco) (Culex quinquefasciatus, UniProt A0A3G1CJJ7); test: as above; conditions: agonist current, 0.01, 0.1 and 1 µM, holding -80 to -70 mV
T3 construct: full-length short version, 391 residues, shorter N-terminus than the VectorBase prediction CPIJ013954; pGEMHE, Xenopus oocytes co-expressing CquiOrco; with Odorant receptor coreceptor
T3 sequence (A0A3G1CJJ7 1-391): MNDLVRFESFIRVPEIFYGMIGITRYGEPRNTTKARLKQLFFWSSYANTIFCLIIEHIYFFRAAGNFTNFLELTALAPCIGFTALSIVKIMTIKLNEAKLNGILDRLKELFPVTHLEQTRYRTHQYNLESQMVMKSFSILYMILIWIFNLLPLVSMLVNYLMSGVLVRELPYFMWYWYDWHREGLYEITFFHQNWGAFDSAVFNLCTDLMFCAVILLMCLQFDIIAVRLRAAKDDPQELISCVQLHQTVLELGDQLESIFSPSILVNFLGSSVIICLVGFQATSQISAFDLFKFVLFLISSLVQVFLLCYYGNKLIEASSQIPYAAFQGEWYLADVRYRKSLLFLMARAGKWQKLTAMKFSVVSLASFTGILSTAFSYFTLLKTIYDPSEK

Row | Structure (SMILES) | two-electrode voltage clamp, Xenopus oocytes, current traces [1] | two-electrode voltage clamp, Xenopus oocytes, current traces [2] | two-electrode voltage clamp, Xenopus oocytes, concentration-response [3] | two-electrode voltage clamp, Xenopus oocytes, concentration-response [4]
1 | C=CC(O)CCCCC (centres unmarked) [1-octen-3-ol] | CquiOR114b-2 and CquiOrco (lower trace). Compounds were delivered in the following order | oocytes co-expressing CquiOR114b-1 and CquiOrco (top trace) | – | –
2 | C#CC(O)CCCCC (centres unmarked) [1-octyn-3-ol] | CquiOR114b-2 and CquiOrco (lower trace). Compounds were delivered in the following order: 1-octyn-3-ol | oocytes co-expressing CquiOR114b-1 and CquiOrco (top trace) | – | –
3 | CCCCCC(O)CC (centres unmarked) [3-octanol] | CquiOR114b-2 and CquiOrco (lower trace). Compounds were delivered in the following order | oocytes co-expressing CquiOR114b-1 and CquiOrco (top trace) | – | –
4 | C=C[C@H](O)CCCCC [(R)-1-octen-3-ol] | – | – | currents elicited by ( R)-1-octen-3-ol were significantly lower than those obtained with its antipode | robust responses were elicited by ( R)-1-octen-3-ol in a dose-dependent manner
5 | C#C[C@H](O)CCCCC [(R)-1-octyn-3-ol] | – | – | oocytes were challenged with enantiomers of 1-octen-3-ol, 1-octyn-3-ol, and 3-octanol | CquiOR118b showed dramatic enantioselectivity towards ( R)-as compared to ( S)-1-octyn-3-ol
6 | CCCCC[C@H](O)CC [(R)-3-octanol] | – | – | robust responses to 3-octanol, with responses to the ( R)- and ( S)-stereoisomers being almost indistinguishable | the responses to ( R)-3-octanol were relatively high
7 | C=C[C@@H](O)CCCCC [(S)-1-octen-3-ol] | – | – | significantly lower than those obtained with its antipode, ( S)-1-octen-3-ol | currents generated by its antipode, ( S)-1-octen-3-ol, were relatively very small
8 | C#C[C@@H](O)CCCCC [(S)-1-octyn-3-ol] | – | – | showed preference for ( S)-isomers of 1-octen-3-ol and 1-octyn-3-ol | CquiOR118b showed dramatic enantioselectivity towards ( R)-as compared to ( S)-1-octyn-3-ol
9 | CCCCC[C@@H](O)CC [(S)-3-octanol] | – | – | robust responses to 3-octanol, with responses to the ( R)- and ( S)-stereoisomers being almost indistinguishable | –
